In PubChem BioAssay (NCI):
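Growth conditions: 96-well plates. Treatment: test compound, 48 hours, 5 concentrations. Analysis: linear interpolation between bracketing concentrations; unreached endpoints set to highest concentration. TGI marks complete inhibition of growth.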

How the values were obtained:
Assay in all cases: NCI anticancer screen, dose series, 48 h
[1] = tested on: 786-0 renal
[2] = tested on: COLO 205 colon
[3] = tested on: DU-145 prostate
[4] = tested on: HCC-2998 colon
[5] = tested on: HOP-92 NSCLC
[6] = tested on: HS 578T breast
[7] = tested on: K-562 leukemia
[8] = tested on: MALME-3M melanoma
[9] = tested on: MCF7 breast
[10] = tested on: MDA-MB-231 breast
[11] = tested on: MOLT-4 leukemia
[12] = tested on: OVCAR-4 ovarian
[13] = tested on: OVCAR-8 ovarian
[14] = tested on: SF-295 CNS
[15] = tested on: SK-MEL-2 melanoma
[16] = tested on: SR leukemia
[17] = tested on: T-47D breast
[18] = tested on: TK-10 renal
[19] = tested on: U251 CNS
[20] = tested on: UACC-257 melanoma

SMILES | TGI [1] | TGI [2] | TGI [3] | TGI [4] | TGI [5] | TGI [6] | TGI [7] | TGI [8] | TGI [9] | TGI [10] | TGI [11] | TGI [12] | TGI [13] | TGI [14] | TGI [15] | TGI [16] | TGI [17] | TGI [18] | TGI [19] | TGI [20]
Cc1ccc2c(c1)C(=O)N1CCC[C@H]1C=N2 | > 100 µM | 37.8 µM | > 100 µM | 45.6 µM | > 86.9 µM | 31.5 µM | > 100 µM | 35.2 µM | > 76.5 µM | > 66.5 µM | > 84.1 µM | 53.8 µM | > 100 µM | > 100 µM | 34.9 µM | > 92.1 µM | > 100 µM | 85.7 µM | > 85.2 µM | > 74.3 µM
CC(C)OP(=O)(OC(C)C)/C(C#N)=C/c1ccco1 | > 100 µM | > 100 µM | > 100 µM | > 100 µM | > 100 µM | > 100 µM | > 100 µM | > 100 µM | > 100 µM | > 100 µM | > 100 µM | > 100 µM | > 100 µM | > 100 µM | > 100 µM | > 100 µM | > 100 µM | > 100 µM | > 100 µM | > 100 µM
Cc1cc(N=Nc2c(O)ccc3ccccc23)ccc1N=Nc1cccc([N+](C)(C)C)c1 | > 92 µM |  | 48.2 µM | > 100 µM | > 100 µM | 47 µM | > 90.7 µM | 35.2 µM | > 53.1 µM | 55.3 µM | > 100 µM | > 100 µM | 57.3 µM | 51.9 µM | 47.3 µM | > 100 µM | > 100 µM | 49.5 µM | 14.1 µM | > 63.5 µM
O=C1NC(N2CCCCC2)=N/C1=C\c1cccs1 | > 100 µM | > 100 µM | > 100 µM | > 100 µM | > 100 µM | > 100 µM |  | > 100 µM | > 100 µM | > 100 µM | > 100 µM | > 100 µM | > 100 µM | > 100 µM | > 100 µM | > 100 µM | > 100 µM | > 100 µM | > 100 µM | > 100 µM
CCCCOC(=O)NC(Nc1cccc(C(F)(F)F)c1)(C(F)(F)F)C(F)(F)F | > 100 µM | > 100 µM | > 100 µM |  | 64.7 µM | > 100 µM | > 100 µM | > 100 µM | > 100 µM | > 100 µM | > 100 µM | > 100 µM | > 100 µM | > 100 µM | 99.1 µM | 60.4 µM | 45.3 µM | > 100 µM | > 100 µM | > 100 µM
CC(=O)NNc1nc(C)c(C(/C=C/c2ccc([N+](=O)[O-])cc2)=N/NC(N)=S)s1 | > 100 µM | > 100 µM | > 100 µM | > 100 µM | > 100 µM | > 100 µM |  | > 100 µM | > 100 µM | > 100 µM | > 100 µM | > 100 µM | > 100 µM | > 100 µM | > 100 µM | > 100 µM | > 100 µM | > 100 µM | > 100 µM | > 100 µM
CC=CCOc1cc(NC(=S)OC(C)C)ccc1Cl (mixture of isomers) | 31.6 µM | 33.3 µM | 76.9 µM | 30.3 µM | 24.9 µM | 43.9 µM |  | 29.6 µM | 38.2 µM | 51.5 µM | 38.8 µM | 32.4 µM | 33.9 µM | 35.5 µM | 28.6 µM | 44.6 µM | 35.7 µM | 29.2 µM | 32.8 µM | 46.5 µM
C/C1=C/C(C)CC(C)OC(=O)C(C)NC(=O)C(Cc2ccc(O)c(I)c2)N(C)C(=O)C(C)NC(=O)C(C)C1 (stereo unspecified) | 3.79 µM |  | > 58.1 µM | 5.2 µM | 0.0259 µM | < 0.0392 µM | > 40.8 µM | 3.45 µM | > 100 µM | 0.963 µM | 23.7 µM |  | 17.9 µM | 1.25 µM | 5.67 µM | 5.8 µM | 29.1 µM | 0.046 µM | 0.892 µM | 8.36 µM
COc1ccc2c(c1)/C(=C\c1c(C)nc3sc(C)cn13)C(=O)N2 | 72.7 µM |  | > 46.1 µM | 3.85 µM | > 28.5 µM | 10.3 µM | > 100 µM | > 100 µM | > 100 µM | 73.6 µM | > 83.8 µM | > 100 µM | 41.6 µM | > 20.4 µM | > 28.3 µM | > 75.6 µM | > 100 µM | > 100 µM | 7.2 µM | > 78.2 µM
Oc1ccccc1C=Nc1ccc(-c2nc3ccccc3[nH]2)cc1 | > 100 µM | > 100 µM | > 100 µM |  | > 100 µM | > 100 µM | > 100 µM | > 100 µM | > 100 µM | > 100 µM | > 100 µM | > 100 µM | > 100 µM | > 100 µM | > 100 µM | > 100 µM | 66.5 µM | > 100 µM | > 100 µM | > 100 µM
